Key:
[1] = molecular target: P-Selectin (Homo sapiens, UniProt P16109); settings: compared to NeuAcα2,3Galβ1,4(Fucα1,3)GlcNAcβ-O-Me (sialyl Lewis-x); cited from earlier work
[2] = molecular target: L-Selectin (Homo sapiens, UniProt P14151); settings: compared to NeuAcα2,3Galβ1,4(Fucα1,3)GlcNAcβ-O-Me (sialyl Lewis-x); cited from earlier work
[3] = test system: LNCaP α2,3(O)ST; assay: Sialyltransferase assay with LNCaP cell extract; type: biochemical, human; settings: Table I; acceptor 7.5 mM; 100% = 30930 CPM (3-O-MeGalβ1,4GlcNAcβ1,6(Galβ1,3)GalNAcα-O-Bn)
Procedure, shortened: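 LNCaP Triton X-100 extract (5 mg protein/ml; 0.1M Tris-maleate pH6.3) incubated with acceptor (typically 7.5 mM) and CMP-[9-3H]NeuAc (typically 0.2 μCi) in 0.1M Na cacodylate pH6.0, 2 h at 37 °C, in duplicate. Radioactive product separated on Dowex-1-formate, Sep-Pak C18 or Biogel P2 and counted by scintillation; blank without acceptor subtracted.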

[4] = test system: α1,2-L-FT plus α1,4-L-FT of breast tumor BC9400; assay: α1,2-L-FT plus α1,4-L-FT assay, breast tumor extract; type: biochemical, human; settings: 1 mg protein of the tissue extract
Experimental: (§1) Colon tumor tissue (CC9338) and breast tumor tissue (BC9400) were obtained during surgical procedures at Roswell Park Cancer Institute and stored frozen within 1 h at −70° C. The tissues were homogenized at 4° C. with 4 volumes of 0.1M Tris Maleate […] 0.1% NaN3 using kinematica. After adjusting the concentration of Triton X-100 to 2%, these homogenates were mixed in the cold room for 1 h using Speci-Mix (Thermolyne) and then centrifuged at 20,000 g for 1 h at 4° C. The clear fat-free supernatant was stored frozen at −20° C. until use. Aliquots of 10 μL from this extract were used in assays run in duplicates. Glycosyltransferase activity in cell lysate was determined by mixing the lysates with acceptor and radiolabeled donor (monosaccharide) under the reaction conditions detailed below, followed by separation of un-reacted donor from the radioactive product using anionic or hydrophobic chromatography. In all cases, the radioactive content of isolated products was determined by using 3a70 scintillation cocktail (Research Products International, Mount Prospect, Ill.) and a Beckman LS6500 scintillation counter. Controls for each assay contained the reaction mixture with everything except the acceptor. All assays were run in duplicate. […]

[5] = test system: α1,2-L-FT plus α1,4-L-FT of colon tumor CC9338; assay: α1,2-L-FT plus α1,4-L-FT assay, colon tumor extract; type: biochemical, human; settings: 1 mg protein of the tissue extract
Experimental: as §1

[6] = molecular target: T1, Rat recombinant α2,3(O)ST (Rattus norvegicus, UniProt Q11205); assay: Sialyltransferase assay with cloned α2,3(O)ST; type: biochemical; settings: Table I; acceptor 7.5 mM; 100% = 40560 CPM (3-O-MeGalβ1,4GlcNAcβ1,6(Galβ1,3)GalNAcα-O-Bn)
T1 construct: purchased Calbiochem
T1 sequence (Q11205 1-350): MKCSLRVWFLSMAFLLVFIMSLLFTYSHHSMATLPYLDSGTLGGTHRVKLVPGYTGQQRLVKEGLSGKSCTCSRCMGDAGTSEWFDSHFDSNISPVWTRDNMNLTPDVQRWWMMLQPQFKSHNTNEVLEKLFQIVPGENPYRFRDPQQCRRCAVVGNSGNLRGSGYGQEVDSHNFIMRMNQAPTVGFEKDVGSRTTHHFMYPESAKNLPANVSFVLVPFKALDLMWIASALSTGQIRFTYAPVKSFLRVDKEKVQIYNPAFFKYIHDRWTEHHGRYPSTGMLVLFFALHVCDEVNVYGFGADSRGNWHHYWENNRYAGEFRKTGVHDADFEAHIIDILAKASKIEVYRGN

[7] = test system: α1,2-L-FT of colon tumor CC9338; assay: α1,2-L-FT assay, colon tumor extract; type: biochemical, human; settings: 1 mg protein of the tissue extract
Experimental: (§2) Colon tumor tissue (CC9338) and breast tumor tissue (BC9400) were obtained during surgical procedures at Roswell Park Cancer Institute and stored frozen within 1 h at −70° C. The tissues were homogenized at 4° C. with 4 volumes of 0.1M Tris Maleate […] 0.1% NaN3 using kinematica. After adjusting the concentration of Triton X-100 to 2%, these homogenates were mixed in the cold room for 1 h using Speci-Mix (Thermolyne) and then centrifuged at 20,000 g for 1 h at 4° C. The clear fat-free supernatant was stored frozen at −20° C. until use. Aliquots of 10 μL from this extract were used in assays run in duplicates. Glycosyltransferase activity in cell lysate was determined by mixing the lysates with acceptor and radiolabeled donor (monosaccharide) under the reaction conditions detailed below, followed by separation of un-reacted donor from the radioactive product using anionic or hydrophobic chromatography. In all cases, the radioactive content of isolated products was determined by using 3a70 scintillation cocktail (Research Products International, Mount Prospect, Ill.) and a Beckman LS6500 scintillation counter. Controls for each assay contained the reaction mixture with everything except the acceptor. All assays were run in duplicate.
(§3) α1,2, α1,6-, α1,3- and α1,4-fucosyltransferase (FT) assay reactions were carried out for 2 h in a reaction mixture containing 50 mM Hepes buffer (pH 7.5), 5 mM MnCl2, 7 mM ATP, 3 mM NaN3, 3 mM synthetic acceptor or 40 μg of fetuin-based acceptor, 0.05 μCi GDP-[14C]Fuc (290 mCi/mmol) and 10 μl cell extract in a total volume of 20 μl [Chandrasekaran et al., 1996]. Sulfotransferase (Sulfo T) assay reactions took 2 h and required a mixture containing 100 mM Tris-maleate (pH 7.2), 5 mM Mg Acetate, 5 mM ATP, 10 mM NaF, 10 mM BAL, 7.5 mM acceptor, 0.5 μCi of [^35S]PAPS (specific activity 2.4 Ci/mmol) and 10 μl of cell extract in a total volume of 30 μl [Chandrasekaran et al., 2004].
(§4) Dowex-1-C1 or Sep-Pak C18 cartridges were used to isolate radiolabeled product from the reaction mixture. For GalT, GalNAc-T and FT assays, the incubation mixture was diluted with 1 ml water and passed through a 1 ml Dowex-1-C1 column [Chandrasekaran et al., 1996; Chandrasekaran et al., 2001]. The column was washed twice with 1 ml of water. The breakthrough and the water wash contained the [^14C]-galactosylated or [^14C]-fucosylated products formed with neutral acceptors. 3 ml of 0.1M NaCl was used to obtain [^14C]-fucosylated products from sialylated acceptors after water elution. For sialytransferase assays, the radioactive products from benzylglycosides were separated by hydrophobic chromatography on Sep-Pak C18 cartridge (Waters, Milford, Mass.), and elution of the product was done with 3 ml methanol [Palcic et al., 1988]. […]

[8] = test system: α1,2-L-FT of breast tumor BC9400; assay: α1,2-L-FT assay, breast tumor extract; type: biochemical, human; settings: 1 mg protein of the tissue extract
Experimental: as §2, §3, §4

[9] = test system: β-GlcNAc:β1,4Gal-T of colon tumor CC9338; assay: β-GlcNAc:β1,4Gal-T assay, colon tumor extract; type: biochemical, human; settings: other acceptors, 1 mg protein of the tissue extract
Experimental: as §2
(§5) The acceptors used for measuring the glycosyltransferase and sulfotransferase activities are given in Table I. The following are the conditions for individual enzymatic assays. Reaction temperature in all cases was 37° C. α2,3- and α2,6 sialytransferase (ST) assay reactions proceeded for 2 h in a mixture containing 100 mM sodium cacodylate buffer (pH 6.0), 7.5 mM acceptor, CMP-[9-^3H]NeuAc (typically 0.2 μCi) and 10 μl cell extract in a total volume of 20 μl [Chandrasekaran et al., 1995]. βGlcNAc:β1,4Gal-T and αGalNAc:β1,3Gal-T assay mixtures in duplicate contained 0.1M Hepes-NaOH pH 7.0, 7 mM ATP, 20 mM Mn acetate, 1 mM UDP-Gal, UDP [^14C]Gal (0.05 μCi; 327mCi/mmol; Amersham), 0.5 mM acceptor (unless otherwise stated) and the enzyme in a total volume of 20 μL. It was incubated for 4 h [Chandrasekaran et al., 2001]. βGlcNAc:β1,4GalNAc-T assay mixtures in duplicate contained 0.1M Hepes-NaOH pH 7.0, 7 mM ATP, 20 mM Mn acetate. UDP [^3H] GalNAc (0.20 μCi; 7.8 Ci/mmol: New England Nuclear Corp.) 7.5 mM acceptor (unless otherwise stated) and the enzyme in a total volume of 20 μL and incubated for 4 h [Chandrasekaran et al., 2001].
(§6) Dowex-1-C1 or Sep-Pak C18 cartridges were used to isolate radiolabeled product from the reaction mixture. For GalT, GalNAc-T and FT assays, the incubation mixture was diluted with 1 ml water and passed through a 1 ml Dowex-1-C1 column [Chandrasekaran et al., 1996; Chandrasekaran et al., 2001]. The column was washed twice with 1 ml of water. The breakthrough and the water wash contained the [^14C]-galactosylated or [^14C]-fucosylated products formed with neutral acceptors. 3 ml of 0.1M NaCl was used to obtain [^14C]-fucosylated products from sialylated acceptors after water elution. For sialytransferase assays, the radioactive products from benzylglycosides were separated by hydrophobic chromatography on Sep-Pak C18 cartridge (Waters, Milford, Mass.), and elution of the product was done with 3 ml methanol [Palcic et al., 1988]. For sulfotransferase assays, elution of the [^35S]-sulfated compound from Dowex-1-C1 column was achieved by 3 ml of 0.2M NaCl [Chandrasekaran et al., 2004].

[10] = test system: β-GlcNAc:β1,4GalNAc-T of colon tumor CC9338; assay: β-GlcNAc:β1,4GalNAc-T assay, colon tumor extract; type: biochemical, human; settings: other acceptors, 1 mg protein of the tissue extract
Experimental: as §2, §5, §6

[11] = test system: β-GlcNAc:β1,4GalNAc-T of breast tumor BC9400; assay: β-GlcNAc:β1,4GalNAc-T assay, breast tumor extract; type: biochemical, human; settings: other acceptors, 1 mg protein of the tissue extract
Experimental: as §2, §5, §6

[12] = test system: β-GlcNAc:β1,4Gal-T of breast tumor BC9400; assay: β-GlcNAc:β1,4Gal-T assay, breast tumor extract; type: biochemical, human; settings: other acceptors, 1 mg protein of the tissue extract
Experimental: as §2, §5, §6

P-Selectin, sequence (P16109 42-830, species assumed): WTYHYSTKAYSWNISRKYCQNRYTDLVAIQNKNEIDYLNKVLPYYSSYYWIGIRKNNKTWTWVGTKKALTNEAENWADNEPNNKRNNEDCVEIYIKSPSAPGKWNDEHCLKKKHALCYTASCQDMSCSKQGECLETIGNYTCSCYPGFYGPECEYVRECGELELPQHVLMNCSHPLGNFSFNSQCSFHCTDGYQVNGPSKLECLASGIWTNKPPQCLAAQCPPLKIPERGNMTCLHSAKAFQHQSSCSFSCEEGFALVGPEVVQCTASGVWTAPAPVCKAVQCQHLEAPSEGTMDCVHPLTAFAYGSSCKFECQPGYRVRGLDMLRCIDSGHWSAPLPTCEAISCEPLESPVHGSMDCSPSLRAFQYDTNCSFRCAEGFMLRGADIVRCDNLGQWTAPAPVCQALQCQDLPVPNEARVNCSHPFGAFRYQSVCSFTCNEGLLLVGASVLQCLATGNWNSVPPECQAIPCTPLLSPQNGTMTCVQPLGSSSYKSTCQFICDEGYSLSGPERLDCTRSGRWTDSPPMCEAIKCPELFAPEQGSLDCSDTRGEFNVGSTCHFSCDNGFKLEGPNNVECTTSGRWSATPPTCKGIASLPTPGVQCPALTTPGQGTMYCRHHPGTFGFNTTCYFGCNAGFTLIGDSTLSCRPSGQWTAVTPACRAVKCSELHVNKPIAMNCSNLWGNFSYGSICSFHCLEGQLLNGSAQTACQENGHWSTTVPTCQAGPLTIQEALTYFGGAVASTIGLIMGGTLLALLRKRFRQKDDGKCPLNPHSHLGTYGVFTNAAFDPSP
L-Selectin, sequence (P14151 39-372, species assumed): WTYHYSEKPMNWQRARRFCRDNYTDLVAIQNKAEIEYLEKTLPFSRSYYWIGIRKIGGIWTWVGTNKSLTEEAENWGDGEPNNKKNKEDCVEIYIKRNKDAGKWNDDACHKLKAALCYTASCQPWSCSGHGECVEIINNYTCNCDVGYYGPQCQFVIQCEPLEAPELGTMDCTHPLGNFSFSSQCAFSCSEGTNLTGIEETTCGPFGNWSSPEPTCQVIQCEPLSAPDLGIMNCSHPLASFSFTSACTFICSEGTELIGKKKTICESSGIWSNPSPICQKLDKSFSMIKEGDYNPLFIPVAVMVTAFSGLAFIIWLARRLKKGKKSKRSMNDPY

Compound	a) β-GlcNAc:β1,4Gal-T activity: incorporation of radioactive sugar [9]	b) β-GlcNAc:β1,4GalNAc-T activity: incorporation of radioactive sugar [10]	b) β-GlcNAc:β1,4GalNAc-T activity: incorporation of radioactive sugar [11]	a) β-GlcNAc:β1,4Gal-T activity: incorporation of radioactive sugar [12]	further results
COC1OC(COC2OC(CO)C(OC3OC(CO)C(O)C(O)C3NC(C)=O)C(OC3OC(C)C(O)C(O)C3O)C2NC(C)=O)C(O)C(OC2OC(CO)C(O)C(OC3(C(=O)O)CC(O)C(NC(C)=O)C(C(O)C(O)CO)O3)C2O)C1NC(C)=O (stereo not shown) [GalNAcβ1,4(Fucα1,3)GlcNAcβ1,6(NeuAcα2,3Galβ1,3) GalNAcα-O-Me]					fold better inhibitor of P-Selectin binding [1]: 5-6 fold; fold better inhibitor of L-Selectin binding [2]: 5-6 fold
CO[C@@H]1O[C@H](CO)[C@H](O)[C@H](O[C@@H]2O[C@H](CO)[C@@H](O)[C@H](O[C@@H]3O[C@H](CO)[C@H](O)[C@H](O)[C@H]3O)[C@H]2NC(C)=O)[C@H]1O [Galβ1,3GlcNAcβ1,3Galβ-O-Me]					Sialyltransferase activity (%) LNCaP α2,3(O)ST [3]: 1.4%; α1,2-L-FT plus α1,4-L-FT activity: incorporation of radioactive sugar [4]: 16.8 CPM × 10^−3; α1,2-L-FT plus α1,4-L-FT activity: incorporation of radioactive sugar [5]: 578.9 CPM × 10^−3; Sialyltransferase activity (%) Cloned α2,3(O)ST [6]: 37.2%
OC[C@H]1O[C@@H](OCc2ccccc2)[C@H](O)[C@@H](O)[C@H]1O [Galβ-O-Bn]					α1,2-L-FT activity: incorporation of radioactive sugar [7]: 20.6 CPM × 10^−3; α1,2-L-FT activity: incorporation of radioactive sugar [8]: 9.8 CPM × 10^−3
C=CCO[C@@H]1O[C@H](CO[C@@H]2O[C@H](CO)[C@@H](O)[C@H](O)[C@@H]2O[C@@H]2O[C@H](CO)[C@@H](O)[C@H](O)[C@H]2NC(C)=O)[C@@H](O)[C@H](O)[C@H]1O [GlcNAcβ1,2Manβ1,6Glcβ-O—Al]	277.7 CPM × 10^−3	25.6 CPM × 10^−3	57.9 CPM × 10^−3	70.5 CPM × 10^−3	
CO[C@@H]1O[C@H](CO)[C@H](O)[C@H](O[C@@H]2O[C@H](CO)[C@@H](O)[C@H](O)[C@H]2NC(C)=O)[C@H]1O [GlcNAcβ1,3Galβ-O-Me]	247.9 CPM × 10^−3	20.9 CPM × 10^−3	60.9 CPM × 10^−3	338.5 CPM × 10^−3	
